In ChEMBL document CHEMBL1201862, “PubChem BioAssay data set” (2004):
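48-hour exposure; five concentrations; linearly interpolated endpoints. GI50 = concentration required for 50% inhibition of growth.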 Calls of active or inactive are those of the source. Cut-off read from the data, not from the text of the source: active = GI50 up to about 1.1 µM and inactive = higher.

Key:
Assay in all cases: growth of human tumour cells (NCI), 48 h
[1] = test system: CAKI-1
[2] = test system: CCRF-CEM
[3] = test system: HL-60
[4] = test system: OVCAR-4
[5] = test system: HOP-92
[6] = test system: NCI-H23
[7] = test system: MDA-MB-435
[8] = test system: OVCAR-3
[9] = test system: MOLT-4
[10] = test system: RPMI-8226
[11] = test system: SNB-75
[12] = test system: LOX IMVI
[13] = test system: MDA-MB-231
[14] = test system: A549
[15] = test system: HCT-15
[16] = test system: HOP-62
[17] = test system: SN12C
[18] = test system: SF-268
[19] = test system: SK-MEL-5
[20] = test system: NCI-H226
[21] = test system: OVCAR-8
[22] = test system: SF-295
[23] = test system: UACC-62
[24] = test system: HCC 2998
[25] = test system: SK-MEL-28
[26] = test system: UACC-257
[27] = test system: MDA-N
[28] = test system: HCT-116
[29] = test system: NCI-H460
[30] = test system: NCI/ADR-RES
[31] = test system: HT-29
[32] = test system: IGROV-1
[33] = test system: A498
[34] = test system: DU-145
[35] = test system: SF-539
[36] = test system: MCF7
[37] = test system: U-251
[38] = test system: M14
[39] = test system: K562
[40] = test system: Malme-3M
[41] = test system: UO-31
[42] = test system: BT-549
[43] = test system: SNB-19
[44] = test system: NCI-H522
[45] = test system: ACHN
[46] = test system: TK-10
[47] = test system: SW-620
[48] = test system: KM12
[49] = test system: Hs-578T
[50] = test system: PC-3
[51] = test system: COLO 205
[52] = test system: SK-OV-3
[53] = test system: SK-MEL-2
[54] = test system: EKVX
[55] = test system: RXF 393
[56] = test system: 786-0
[57] = test system: OVCAR-5
[58] = test system: SR

For `CCN(CC)c1c(C(C)(C)C)c(=O)n2ccsc2c1OC(C)=O`, the GI50 [1] was 18.6 µM (inactive), the GI50 [2] was 49 µM (inactive) and the GI50 [3] was 29.4 µM (inactive). The GI50 [4] was 15.2 µM (inactive), the GI50 [5] was 17.4 µM (inactive) and the GI50 [6] was 16.1 µM (inactive). For the same compound, the GI50 [7] was 18 µM (inactive), the GI50 [8] was 17.1 µM (inactive) and the GI50 [9] was 17.8 µM (inactive). The GI50 [10] was 13.8 µM (inactive), the GI50 [11] was 15 µM (inactive) and the GI50 [12] was 17.4 µM (inactive). The GI50 [13] was 17.8 µM (inactive), the GI50 [14] was 15 µM (inactive) and the GI50 [15] was 16.5 µM. The GI50 [16] was 13.3 µM (inactive), the GI50 [17] was 18.2 µM (inactive) and the GI50 [18] was 15.2 µM (inactive). The GI50 [19] was 18.1 µM (inactive), the GI50 [20] was 15.4 µM (inactive) and the GI50 [21] was 15 µM (inactive). The GI50 [22] was 17.1 µM (inactive), the GI50 [23] was 16.9 µM (inactive) and the GI50 [24] was 17.4 µM (inactive). For the same compound, the GI50 [25] was 17.1 µM (inactive), the GI50 [26] was 16.5 µM (inactive) and the GI50 [27] was 18.6 µM (inactive). The GI50 [28] was 13.6 µM (inactive), the GI50 [29] was 16.5 µM (inactive) and the GI50 [30] was 13 µM (inactive). The GI50 [31] was 14.8 µM (inactive), the GI50 [32] was 16.8 µM (inactive) and the GI50 [33] was 19.2 µM (inactive). For the same compound, the GI50 [34] was 19.9 µM (inactive), the GI50 [35] was 19.1 µM (inactive) and the GI50 [36] was 15.6 µM (inactive). The GI50 [37] was 17 µM (inactive), the GI50 [38] was 17.3 µM (inactive) and the GI50 [39] was 17.6 µM (inactive). For the same compound, the GI50 [40] was 12.5 µM (inactive), the GI50 [41] was 17.9 µM (inactive) and the GI50 [42] was 15.5 µM (inactive). For the same compound, the GI50 [43] was 16.6 µM (inactive), the GI50 [44] was 13.4 µM (inactive) and the GI50 [45] was 16.2 µM (inactive). The GI50 [46] was 19.8 µM (inactive), the GI50 [47] was 16.9 µM (inactive) and the GI50 [48] was 15.5 µM (inactive). For the same compound, the GI50 [49] was 22.9 µM (inactive), the GI50 [50] was 11.2 µM (inactive) and the GI50 [51] was 16.9 µM (inactive). For the same compound, the GI50 [52] was 18.2 µM (inactive), the GI50 [53] was 17.1 µM (inactive) and the GI50 [54] was 15.1 µM (inactive). The GI50 [55] was 16.9 µM (inactive), the GI50 [56] was 19.9 µM (inactive) and the GI50 [57] was 15.8 µM (inactive).

For `C=C(C)C[C@H](Sc1nc2ccccc2s1)[C@H](C)O`, the GI50 [1] was 70.1 µM (inactive), the GI50 [3] was 18.9 µM (inactive) and the GI50 [4] was 70.1 µM (inactive). The GI50 [5] was 24.6 µM (inactive), the GI50 [6] was 31 µM (inactive) and the GI50 [7] was 37.2 µM (inactive). For the same compound, the GI50 [8] was 18.8 µM (inactive), the GI50 [9] was 16.4 µM (inactive) and the GI50 [10] was 28.9 µM (inactive). The GI50 [12] was 39.4 µM (inactive), the GI50 [13] was 73.6 µM (inactive) and the GI50 [14] was 50.5 µM (inactive). The GI50 [15] was 35.8 µM, the GI50 [16] was > 100 µM (inactive) and the GI50 [17] was 45.4 µM (inactive). The GI50 [18] was 42.3 µM (inactive), the GI50 [19] was 18.1 µM (inactive) and the GI50 [20] was 22.5 µM (inactive). For the same compound, the GI50 [21] was 34.3 µM (inactive), the GI50 [22] was 39.5 µM (inactive) and the GI50 [23] was 52.7 µM (inactive). For the same compound, the GI50 [24] was 59.2 µM (inactive), the GI50 [25] was 41.4 µM (inactive) and the GI50 [26] was 32.4 µM (inactive). For the same compound, the GI50 [27] was 37 µM (inactive), the GI50 [28] was 39.4 µM (inactive) and the GI50 [29] was 45.3 µM (inactive). For the same compound, the GI50 [30] was 33 µM (inactive), the GI50 [31] was 31.1 µM (inactive) and the GI50 [32] was > 100 µM (inactive). For the same compound, the GI50 [33] was 27.2 µM (inactive), the GI50 [34] was 88.1 µM (inactive) and the GI50 [35] was 41.8 µM (inactive). The GI50 [36] was 38.3 µM (inactive), the GI50 [37] was 37.5 µM (inactive) and the GI50 [38] was 77.3 µM (inactive). The GI50 [39] was 33.7 µM (inactive), the GI50 [40] was 25.6 µM (inactive) and the GI50 [41] was 69 µM (inactive). For the same compound, the GI50 [42] was 40.2 µM (inactive), the GI50 [43] was > 100 µM (inactive) and the GI50 [44] was 23.8 µM (inactive). For the same compound, the GI50 [45] was > 100 µM (inactive), the GI50 [46] was 71.3 µM (inactive) and the GI50 [47] was 45.4 µM (inactive). For the same compound, the GI50 [48] was 41.2 µM (inactive), the GI50 [49] was 41.3 µM (inactive) and the GI50 [50] was 22.6 µM (inactive). The GI50 [51] was 35.5 µM (inactive), the GI50 [53] was 23.1 µM (inactive) and the GI50 [54] was 32.4 µM (inactive). For the same compound, the GI50 [55] was 48.3 µM (inactive), the GI50 [56] was 40.8 µM (inactive) and the GI50 [57] was 65.8 µM (inactive). For the same compound, the GI50 [58] was 30.3 µM (inactive).

For `Cc1ccc2c(=O)c3cccc(CC(=O)O)c3[nH]c2c1C`, the GI50 [1] was > 100 µM (inactive), the GI50 [2] was > 100 µM (inactive) and the GI50 [3] was > 100 µM (inactive). The GI50 [4] was > 100 µM (inactive), the GI50 [5] was > 100 µM (inactive) and the GI50 [6] was > 100 µM (inactive). For the same compound, the GI50 [7] was 65.6 µM (inactive), the GI50 [8] was 57.8 µM (inactive) and the GI50 [9] was > 100 µM (inactive). The GI50 [10] was > 100 µM (inactive), the GI50 [12] was > 100 µM (inactive) and the GI50 [13] was > 100 µM (inactive). The GI50 [14] was > 100 µM (inactive), the GI50 [15] was > 100 µM and the GI50 [16] was > 100 µM (inactive). The GI50 [17] was > 100 µM (inactive), the GI50 [18] was 17.5 µM (inactive) and the GI50 [19] was 33.3 µM (inactive). For the same compound, the GI50 [20] was > 100 µM (inactive), the GI50 [21] was > 100 µM (inactive) and the GI50 [22] was > 100 µM (inactive). The GI50 [23] was > 100 µM (inactive), the GI50 [24] was > 10 µM (inactive) and the GI50 [25] was > 100 µM (inactive). For the same compound, the GI50 [26] was > 100 µM (inactive), the GI50 [27] was > 100 µM (inactive) and the GI50 [28] was > 100 µM (inactive). For the same compound, the GI50 [29] was > 100 µM (inactive), the GI50 [30] was > 100 µM (inactive) and the GI50 [31] was > 100 µM (inactive). For the same compound, the GI50 [32] was > 100 µM (inactive), the GI50 [33] was > 100 µM (inactive) and the GI50 [34] was > 100 µM (inactive). The GI50 [35] was > 100 µM (inactive), the GI50 [36] was 71.6 µM (inactive) and the GI50 [37] was 27.9 µM (inactive). For the same compound, the GI50 [38] was > 100 µM (inactive), the GI50 [39] was > 100 µM (inactive) and the GI50 [40] was > 100 µM (inactive). For the same compound, the GI50 [41] was > 100 µM (inactive), the GI50 [42] was > 100 µM (inactive) and the GI50 [43] was > 100 µM (inactive). For the same compound, the GI50 [44] was > 100 µM (inactive), the GI50 [45] was > 100 µM (inactive) and the GI50 [46] was > 100 µM (inactive). For the same compound, the GI50 [47] was > 100 µM (inactive), the GI50 [48] was > 100 µM (inactive) and the GI50 [49] was 72.1 µM (inactive). For the same compound, the GI50 [50] was > 100 µM (inactive), the GI50 [51] was > 100 µM (inactive) and the GI50 [52] was > 100 µM (inactive). For the same compound, the GI50 [54] was > 100 µM (inactive), the GI50 [56] was > 100 µM (inactive) and the GI50 [58] was > 100 µM (inactive).
